Values quoted from earlier work as cited in PMC8465315, “Molecular Umbrella as a Nanocarrier for Antifungals” (Molecules, 2021).

Design: method as in PMID 15593345
Settings: in vitro; cited from earlier work

C=C1C[C@H](N)[C@H](C(=O)O)C1 [BAY 10-8888]
metabolism by liver microsomes: not metabolized
